Type in all cases: cell-based
Experiment [1] deals with T1, pERK1/2 (Thr202/Tyr204), NCI-1H358 (KRAS G12C) (Homo sapiens, UniProt P01116, G12C).
T1 construct: pERK1/2 HTRF read-out
The experiment can be described thus: Assay of intracellular pERK1/2 (Thr202/Tyr204) phosphorylation in NCI-H358 cells (KRAS G12C). The procedure, abridged:
(§1)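 Cells (10000-12000/well) exposed to 3-fold compound dilutions for 2 days at 37 °C, then lysed; pERK1/2 (Thr202/Tyr204) measured by HTRF with d2 and cryptate antibodies, 665/615 nm ratio.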

Experiment [2] has as its target T2, pERK1/2 (Thr202/Tyr204), PANC-1 (KRAS G121D) (Homo sapiens, UniProt P01116, G12D).
T2 construct: pERK1/2 HTRF read-out
Nature of the experiment: Assay of intracellular pERK1/2 (Thr202/Tyr204) phosphorylation in PANC-1 cells (KRAS G12D). The procedure, abridged:
as §1

The target in experiment [3] is T3, pERK1/2 (Thr202/Tyr204), NCI-1H441 (KRAS G12V) (Homo sapiens, UniProt P01116, G12V).
T3 construct: pERK1/2 HTRF read-out
Nature of the experiment: Assay of intracellular pERK1/2 (Thr202/Tyr204) phosphorylation in NCI-H441 cells (KRAS G12V). A digest of the protocol: as §1

Setting [4] is: pERK1/2, 2 days, read-out: NCI-H358 (KRAS G12C) IC50.
[5] abbreviates: pERK1/2, 2 days, read-out: PANC-1 (KRAS G12D) IC50.
Where [6] appears, read: pERK1/2, 2 days, read-out: NCI-H441 (KRAS G12V) IC50.
Setting [7] is: read-out: NCI-H358 (KRAS G12C) IC50, pERK1/2, 2 days.
The mark [8] stands for this setting: read-out: PANC-1 (KRAS G12D) IC50, pERK1/2, 2 days.
Where [9] appears, read: read-out: NCI-H441 (KRAS G12V) IC50, pERK1/2, 2 days.

Like-named read-outs stand apart in the source and are kept apart here.

T1 sequence (P01116 1-188 isoform P01116-2 G12C): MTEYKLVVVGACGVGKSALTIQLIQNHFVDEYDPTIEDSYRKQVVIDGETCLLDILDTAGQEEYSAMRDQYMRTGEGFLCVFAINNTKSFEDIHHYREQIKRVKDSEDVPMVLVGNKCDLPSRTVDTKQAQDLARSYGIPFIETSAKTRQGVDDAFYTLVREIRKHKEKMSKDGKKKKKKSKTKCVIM
T2 sequence (P01116 1-188 isoform P01116-2 G12D): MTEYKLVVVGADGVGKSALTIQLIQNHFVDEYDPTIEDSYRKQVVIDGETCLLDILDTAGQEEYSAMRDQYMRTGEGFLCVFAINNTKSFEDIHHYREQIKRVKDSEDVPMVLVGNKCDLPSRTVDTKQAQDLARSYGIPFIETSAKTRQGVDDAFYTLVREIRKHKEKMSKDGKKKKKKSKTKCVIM
T3 sequence (P01116 1-188 isoform P01116-2 G12V): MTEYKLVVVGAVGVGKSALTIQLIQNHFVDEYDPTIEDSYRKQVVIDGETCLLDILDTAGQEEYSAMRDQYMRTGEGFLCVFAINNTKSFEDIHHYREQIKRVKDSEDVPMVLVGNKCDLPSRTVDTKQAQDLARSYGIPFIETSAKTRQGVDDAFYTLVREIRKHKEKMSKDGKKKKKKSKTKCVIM

In the case of `CC(c1cccnc1N)N1c2nc(OC[C@@H]3C[C@@H](F)CN3C)nc3c(F)c(-c4cc(N)c(F)c(Cl)c4C(F)(F)F)nc(c23)OC[C@@H]1C` (stereo partly drawn) [Compound 289], the IC50 came to 0.3 nM in experiment [1] (setting [4]), 4 nM in experiment [2] (setting [5]) and 1 nM in experiment [3] (setting [6]).
For `CCc1c(F)ccc2cc(O)cc(-c3nc4c5c(nc(OC[C@@H]6C[C@@H](F)CN6C)nc5c3F)N(C(C)c3cccnc3N)[C@@H](C)CO4)c12` (stereo partly drawn) [Compound 290], in that order: 0.2 nM, 0.2 nM and 0.3 nM.
As to `CC(c1cccnc1N)N1c2nc(OC[C@@H]3C[C@@H](F)CN3C)nc3c(F)c(-c4cc(O)cc(Cl)c4C4CC4)nc(c23)OC[C@@H]1C` (stereo partly drawn) [Compound 291], the IC50 is 0.1 nM in experiment [1] (setting [4]), 1 nM in experiment [2] (setting [5]) and 0.3 nM in experiment [3] (setting [6]).
Take `CCNC(=O)Oc1cc(Cl)c(C2CC2)c(-c2nc3c4c(nc(OC[C@@]56CCCN5C[C@H](F)C6)nc4c2F)N(C(C)c2cccnc2N)[C@@H](C)CO3)c1` (stereo partly drawn) [Compound 293, (*)3-((9S)-10-(1-(2-aminopyridin-3-yl)ethyl)-4-fluoro-2-(((2R,7aS)-2-fluorotetrahydro-1H-pyrrolizin-7a(5H)-yl)methoxy)-9-methyl-9,10-dihydro-8H-7-oxa-1,3,6,10-tetraazacyclohepta[de]naphthalen-5-yl)-5-chloro-4-cyclopropylphenyl ethylcarbamate acetate]: the results for the IC50 in experiment [1] (setting [7]), in experiment [2] (setting [8]) and in experiment [3] (setting [9]) were 1 nM, 0.5 nM and 1 nM, respectively.
As for `CCNC(=O)Oc1cc(-c2nc3c4c(nc(OC[C@@]56CCCN5C[C@H](F)C6)nc4c2F)N(C(C)c2cccnc2N)[C@@H](C)CO3)c2c(CC)c(F)ccc2c1` (stereo partly drawn) [Compound 294], the IC50 in experiment [1] (setting [7]) was found to be 0.8 nM; in experiment [2] (setting [8]), 0.5 nM; in experiment [3] (setting [9]), 2 nM.
For `CNC(=O)Oc1cc(Cl)c(C2CC2)c(-c2nc3c4c(nc(OC[C@@]56CCCN5C[C@H](F)C6)nc4c2F)N(C(C)c2cccnc2N)[C@@H](C)CO3)c1` (stereo partly drawn) [Compound 295], in that order: 0.4 nM, 0.5 nM and 1 nM.
For `CCc1c(F)ccc2cc(OC(=O)NC)cc(-c3nc4c5c(nc(OC[C@@]67CCCN6C[C@H](F)C7)nc5c3F)N(C(C)c3cccnc3N)[C@@H](C)CO4)c12` (stereo partly drawn) [Compound 296], in that order: 0.5 nM, 0.3 nM and 2 nM.
As for `CC(c1cccnc1N)N1c2nc(OC[C@@]34CCCN3C[C@H](F)C4)nc3c(F)c(-c4c(C(F)(F)F)ccc5[nH]ncc45)nc(c23)OC[C@@H]1C` (stereo partly drawn) [Compound 297], the IC50 in experiment [1] (setting [4]) was determined as 0.5 nM; in experiment [2] (setting [5]) it was 3 nM; in experiment [3] (setting [6]), 1 nM.
In the same order, the values of `CCc1c(F)ccc2cc(O)cc(-c3nc4c5c(nc(OC[C@@]67CCCN6C[C@H](F)C7)nc5c3F)N(C(C)c3ccccc3N)[C@@H](C)CO4)c12` (stereo partly drawn) [Compound 298] are over 100 nM, over 100 nM and over 100 nM.
For `CCc1c(F)ccc2cc(O)cc(-c3nc4c5c(nc(OC[C@@]67CCCN6C[C@H](F)C7)nc5c3F)N(C(C)c3cccnc3NC(=O)[C@H](C)N)[C@@H](C)CO4)c12` (stereo partly drawn) [Compound 300], in that order: 0.6 nM, 0.5 nM and 2 nM.
As for `CCc1c(F)ccc2cc(OC(=O)N(C)C)cc(-c3nc4c5c(nc(OC[C@@]67CCCN6C[C@H](F)C7)nc5c3F)N(C(C)c3cccnc3N)[C@@H](C)CO4)c12` (stereo partly drawn) [Compound 301], the IC50 was determined as 25 nM in experiment [1] (setting [7]), 77 nM in experiment [2] (setting [8]) and 72 nM in experiment [3] (setting [9]).
For `C/C=C/c1cc(N)cc(-c2nc3c4c(nc(OC[C@@]56CCCN5C[C@H](F)C6)nc4c2F)N(C(C)c2cccnc2N)[C@@H](C)CO3)c1C(F)(F)F` (stereo partly drawn) [Compound 302], the IC50 in experiment [1] (setting [4]), in experiment [2] (setting [5]) and in experiment [3] (setting [6]) was over 100 nM each time.
Take `CCc1c(F)ccc2cc(OC(=O)N3CCC3)cc(-c3nc4c5c(nc(OC[C@@]67CCCN6C[C@H](F)C7)nc5c3F)N(C(C)c3cccnc3N)[C@@H](C)CO4)c12` (stereo partly drawn) [Compound 304]: the IC50 in experiment [1] (setting [7]) stood at 21 nM; in experiment [2] (setting [8]) it was 55 nM; in experiment [3] (setting [9]) it was 46 nM.
Turning to `CC(c1cccnc1N)N1c2nc(OC[C@@]34CCCN3C[C@H](F)C4)nc3c(F)c(-c4cc(N)cc(Cl)c4C4CC4)nc(c23)OC[C@@H]1C` (stereo partly drawn) [Compound 305], the IC50 in experiment [1] (setting [4]) was found to be 0.3 nM; in experiment [2] (setting [5]), 0.3 nM; in experiment [3] (setting [6]) it was 0.6 nM.
Take `CC(c1cccnc1N)N1c2nc(OC[C@@]34CCCN3C[C@H](F)C4)nc3c(F)c(-c4cc(N)cc(Cl)c4)nc(c23)OC[C@@H]1C` (stereo partly drawn) [Compound 306]: the IC50 stood at 16 nM in experiment [1] (setting [4]), 93 nM in experiment [2] (setting [5]) and 40 nM in experiment [3] (setting [6]).
Turning to `CCc1c(F)ccc2cc(OC(=O)N3CCOCC3)cc(-c3nc4c5c(nc(OC[C@@]67CCCN6C[C@H](F)C7)nc5c3F)N(C(C)c3cccnc3N)[C@@H](C)CO4)c12` (stereo partly drawn) [Compound 307], the IC50 in experiment [1] (setting [7]) came to 13 nM; in experiment [2] (setting [8]), 16 nM; in experiment [3] (setting [9]) it was 23 nM.
In the same order, the values of `CC(c1cccn2ccnc12)N1c2nc(OC[C@@]34CCCN3C[C@H](F)C4)nc3c(F)c(-c4cc(O)cc5ccc(F)c(F)c45)nc(c23)OC[C@@H]1C` (stereo partly drawn) [Compound 310, (*)5,6-Difluoro-4-((9S)-4-fluoro-2-(((2R,7aS)-2-fluorotetrahydro-1H-pyrrolizin-7a(5H)-yl)methoxy)-10-(1-(imidazo[1,2-a]pyridin-8-yl)ethyl)-9-methyl-9,10-dihydro-8H-7-oxa-1,3,6,10-tetraazacyclohepta[de]naphthalen-5-yl)naphthalen-2-ol] are over 100 nM, over 100 nM and over 100 nM.
`Cc1nc(N)cc(-c2nc3c4c(nc(OC[C@@]56CCCN5C[C@H](F)C6)nc4c2F)N(C(C)c2cccnc2N)[C@@H](C)CO3)c1C(F)(F)F` (stereo partly drawn) [Compound 311]: the values for the IC50 in experiment [1] (setting [4]), in experiment [2] (setting [5]) and in experiment [3] (setting [6]) were 0.5 nM, 6 nM and 0.8 nM, respectively.
In the same order, the values of `Cc1cc2[nH]ncc2c(-c2nc3c4c(nc(OC[C@@]56CCCN5C[C@H](F)C6)nc4c2F)N(C(C)c2cccnc2N)[C@@H](C)CO3)c1C(F)(F)F` (stereo partly drawn) [Compound 312] are 0.3 nM, 0.3 nM and 0.4 nM.
`Cc1cc2[nH]ncc2c(-c2nc3c4c(nc(OC[C@@]56CCCN5C[C@H](F)C6)nc4c2F)N(C(C)c2cccnc2N)[C@@H](C)CO3)c1Cl` (stereo partly drawn) [Compound 313]: the IC50 in experiment [1] (setting [4]) came to 0.5 nM; in experiment [2] (setting [5]) it was 3 nM; in experiment [3] (setting [6]) it was 1 nM.
Regarding `Cc1cc2cn[nH]c2cc1-c1nc2c3c(nc(OC[C@@]45CCCN4C[C@H](F)C5)nc3c1F)N(C(C)c1cccnc1N)[C@@H](C)CO2` (stereo partly drawn) [Compound 314], the IC50 in experiment [1] (setting [4]), in experiment [2] (setting [5]) and in experiment [3] (setting [6]) was over 100 nM in each case.
Take `CC(c1cccnc1N)N1c2nc(OC[C@@]34CCCN3C[C@H](F)C4)nc3c(F)c(-c4cc(O)cc(Cl)c4C(F)(F)F)nc(c23)OC[C@@H]1C` (stereo partly drawn) [Compound 315]: the IC50 in experiment [1] (setting [4]) was determined as 2 nM; in experiment [2] (setting [5]), 6 nM; in experiment [3] (setting [6]), 4 nM.
In the same order, the values of `COc1cc2cn[nH]c2cc1-c1nc2c3c(nc(OC[C@@]45CCCN4C[C@H](F)C5)nc3c1F)N(C(C)c1cccnc1N)[C@@H](C)CO2` (stereo partly drawn) [Compound 316] are over 100 nM, over 100 nM and over 100 nM.

These data come from patent US20260356851A1, “TRICYCLIC COMPOUNDS AND USES THEREOF” (HUTCHMED LIMITED, priority 2023, published 2026).
